31 compounds from patent EP4781984A1 (Beyang Therapeutics Co., Ltd., priority 2023, dated 2025) can be followed below.

≈ marks a conversion by molar mass, not a printed value.

One series concerns the target T1, EGFR (Homo sapiens, UniProt P00533).
T1 construct: purchased Carna 08-115
Put plainly: Kinase inhibitory activity, Mobility Shift Assay (EGFR). Type of series: biochemical. On the procedure: Assay for Inhibitory Activity of Compounds Against VEGFR and EGFR Kinases
This assay directly monitors the inhibitory activity of compounds on kinase phosphorylation by measuring non-phosphorylated and phosphorylated substrates in the kinase reaction using Mobility Shift Assays/IMAP™ analysis. Table 2. Reagents and Instruments
Kinase and DTT were added to 1X kinase buffer to form a 2.5X kinase solution; 10 µL of the 2.5X kinase solution was transferred to a 384-well reaction plate, and 1X kinase buffer was added to the negative control wells. The plate was incubated at room temperature for 10 minutes; FAM-labeled peptide, MgCl2, ATP, and other reagents were added to 1X kinase buffer to form a 2.5X substrate solution; 10 µL of the above 2.5X substrate solution was transferred to the 384-well reaction plate; the plate was incubated at 28°C for varying times, and then 25 µL of stop solution was added to the 384-well reaction plate to terminate the reaction. Conversion rate data were read on a CaliperEZ Reader II. […] IC50 values were fitted using XLFit excel add-in version 5.4.0.8. Y = Bottom + (Top−Bottom)/(1 + […]) [formula]
X is the log value of compound concentration, Y is the inhibition rate (% inhibition).

The next series concerns melanin. Put plainly: Compound binding to melanin. Type of series: in vitro ADME. As to conditions: cuttlefish (Sepia officinalis), melanin suspension (1 mg/mL), percentage of free drug (not bound to melanin), 2 µM compound, melanin 1 mg/mL in PBS pH 7.4, 37°C. The text has this:
Detection of Compound Binding to Melanin
Pigmented ocular tissues contain melanin within intracellular melanosomes. Drugs bind to melanin to varying degrees, from no binding to extensive binding. Therefore, melanin binding is an important characteristic affecting ocular drug delivery and biodistribution. The ability of compounds to bind to melanin must be considered in ocular drug development.
Melanin derived from cuttlefish (Sepia officinalis) melanin was purchased from Sigma Aldrich (St Louis, MO).
First, prepare a 1 mg/mL melanin suspension in PBS (pH 7.4). As a matrix washing step, suspended particles were centrifuged at 3000 rpm for 5 minutes. The resulting pellet was resuspended in fresh PBS buffer, heated to 37°C with continuous shaking, and incubated for 1 hour. Accurately pipette 2 microliters of test compound stock solution (0.1 mM) into 98 microliters of melanin suspension (1 mg/mL), resulting in a final incubation concentration of 2 µM. Similarly, accurately pipette 2 microliters of stock solution (0.1 mM) into 98 microliters of PBS buffer (containing 0.1% BSA) as a blank control sample. Samples were incubated at 37°C for 2 hours on a shaker (80-90 rpm). Then centrifuged at room temperature. 50 microliters of supernatant was aspirated and added to 50 microliters of precipitation agent (containing internal standard). All samples above were subjected to protein precipitation, centrifuged, the supernatant was taken, diluted with water (if necessary), and then injected for analysis. Simultaneously, high-binding compounds Sunitinib and chloroquine, and the low-binding compound celecoxib were measured as positive controls. An LC-MS/MS analytical method for determining compound concentration was established. The ratio of analyte/internal standard peak areas (Aanalyte/AIS) measured in the samples, calibrated by the dilution factor, was used as the surrogate concentration for data processing. The binding rate of the compound to melanin (Fb) is calculated by the formula: Fb = 100−(Ctest)/(Ccontrol) × 100% [formula]
Ctest is the drug concentration of the compound in the melanin incubation sample or the peak area ratio of the test compound to the internal standard. Ccontrol is the drug concentration of the compound in the blank control sample or the peak area ratio of the test compound to the internal standard. Percentage of free drug (Fu%) = 100 - Fb The binding rates of the compounds of the present invention to melanin are shown in the table below: Table 11. Binding Rate of Compounds to Melanin

Series [1] in a line: Thermodynamic solubility test. Type of series: physicochemical. The note with it: buffer solution, aqueous buffer, thermodynamic from solid; thermodynamic solubility, room temperature, 8 hours shaking; buffers pH 2.0, 6.5, 7.4 used, pH of the tabulated value not given. On the procedure: Solubility Test of Compounds
Table 9. Reagents and Instruments
After sonication for 10 minutes, they were fixed on a shaker and shaken at room temperature for 8 hours. After shaking, they were sonicated for 10 minutes and centrifuged at 13000 rpm for 15 minutes. 0.1 mL of supernatant was aspirated into a new tube, rinsed with 5 mL of buffer by shaking, and the liquid was discarded. 0.5 mL of supernatant was transferred again to a new tube, centrifuged at 13000 rpm for 15 minutes, and the supernatant was taken (diluted with water if necessary) for LC-MS injection analysis. Sample concentrations were quantified using a 3-5 point calibration curve.

T1 sequence (P00533 25-1210): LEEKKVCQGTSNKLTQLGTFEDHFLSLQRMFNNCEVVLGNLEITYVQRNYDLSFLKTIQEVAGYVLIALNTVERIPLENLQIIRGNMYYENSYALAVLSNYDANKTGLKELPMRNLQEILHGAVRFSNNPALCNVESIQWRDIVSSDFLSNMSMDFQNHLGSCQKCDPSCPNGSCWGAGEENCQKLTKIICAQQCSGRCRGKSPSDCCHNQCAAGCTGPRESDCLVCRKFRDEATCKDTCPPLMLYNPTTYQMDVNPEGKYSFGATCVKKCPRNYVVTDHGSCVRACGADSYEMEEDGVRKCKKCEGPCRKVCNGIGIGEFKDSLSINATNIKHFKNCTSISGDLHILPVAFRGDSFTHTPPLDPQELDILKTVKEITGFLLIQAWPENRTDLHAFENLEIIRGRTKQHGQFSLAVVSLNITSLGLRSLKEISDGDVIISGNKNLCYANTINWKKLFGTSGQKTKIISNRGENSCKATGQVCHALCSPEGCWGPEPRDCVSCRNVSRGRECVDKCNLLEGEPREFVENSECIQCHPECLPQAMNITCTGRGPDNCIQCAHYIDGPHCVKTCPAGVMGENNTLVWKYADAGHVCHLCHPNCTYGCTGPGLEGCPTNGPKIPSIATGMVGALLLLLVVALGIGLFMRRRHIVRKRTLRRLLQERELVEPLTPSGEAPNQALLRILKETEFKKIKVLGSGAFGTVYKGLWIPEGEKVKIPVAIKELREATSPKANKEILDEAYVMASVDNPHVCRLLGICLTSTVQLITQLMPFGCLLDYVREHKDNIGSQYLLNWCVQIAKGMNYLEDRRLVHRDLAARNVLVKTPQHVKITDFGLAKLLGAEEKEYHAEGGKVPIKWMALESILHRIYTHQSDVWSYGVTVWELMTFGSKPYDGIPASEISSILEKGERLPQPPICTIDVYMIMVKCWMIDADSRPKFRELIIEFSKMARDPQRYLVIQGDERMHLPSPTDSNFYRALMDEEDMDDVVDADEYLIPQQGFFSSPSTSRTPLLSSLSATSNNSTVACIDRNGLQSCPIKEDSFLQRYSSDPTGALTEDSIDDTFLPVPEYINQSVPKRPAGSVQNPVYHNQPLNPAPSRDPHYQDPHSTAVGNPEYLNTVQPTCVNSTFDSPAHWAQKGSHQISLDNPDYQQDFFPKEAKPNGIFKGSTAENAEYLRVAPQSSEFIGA

As a reminder, the IC50 is the concentration needed to halve the response being measured. `O=C(NC1CC1)c1cccc(F)c1Sc1ccc2c(/C=C/c3cc(CCCN4CCCC4)ccn3)n[nH]c2c1` [Compound I-123]: the IC50 at EGFR was more than 60 µM.

Turning to `CCNC(=O)c1cc(F)ccc1Sc1ccc2c(/C=C/c3cc(CCCN4CCCC4)ccn3)n[nH]c2c1` [Compound I-122], on EGFR, the IC50 was more than 60 µM.

For the compound `O=C(NC1CC1)c1cccc(F)c1Sc1ccc2c(/C=C/c3cccc(CCN4CCCC4)n3)n[nH]c2c1` [Compound I-128], the IC50 on EGFR was more than 60 µM.

A word on the fraction unbound: it is free concentration divided by total concentration. A higher fraction unbound goes with much free substance. By solubility is commonly meant the dissolved amount per volume that the medium holds. `CNC(=O)c1ccccc1Sc1ccc2c(/C=C/c3cncc(OCCN4CCCC4)c3)n[nH]c2c1` [Compound I-22]: the fraction unbound at 2 h, 2 µM in the series on melanin lay within 0.01 to 0.05. Further, the IC50 at EGFR is more than 60 µM. The same compound showed a solubility at 8 h in series [1] of 57.4 µg/mL (≈ 115 µM).

Take `O=C(NC1CC1)c1cc(F)ccc1Sc1ccc2c(/C=C/c3cccc(CN4CCCC4)n3)n[nH]c2c1` [Compound I-138]: the IC50 on EGFR is more than 60 µM.

For `O=C(NC1CC1)c1ccccc1Sc1ccc2c(/C=C/c3cnn(CCCN4CCCC4)c3)n[nH]c2c1` [Compound I-43], in the series with melanin, the fraction unbound at 2 h, 2 µM was in the range of 0.01 to 0.05. Moreover, the solubility at 8 h in series [1] was found to be 71.6 µg/mL (≈ 140 µM).

With `O=C(NC1CC1)c1cc(F)ccc1Sc1ccc2c(/C=C/c3cc(CCN4CCCC4)ccn3)n[nH]c2c1` [Compound I-135], at EGFR, the IC50 was more than 60 µM.

As for `CCN(CC)Cc1ccc(/C=C/c2n[nH]c3cc(Sc4ccccc4C(=O)NC4CC4)ccc23)nc1` [Compound I-78], in the series on melanin, the fraction unbound at 2 h, 2 µM is 0.01 to 0.05. In series [1], this compound had a solubility at 8 h of 27.6 µg/mL (≈ 55.5 µM).

In the series on melanin, `CNC(=O)c1ccccc1Sc1ccc2c(C#Cc3ccc(OCCN4CCCC4)cn3)n[nH]c2c1` [Compound I-16] displayed an unbound share (fraction unbound) at 2 h, 2 µM not above 0.01. This compound returned a solubility at 8 h in series [1] of 27.2 µg/mL (≈ 54.7 µM).

Turning to `O=C(NC1CC1)c1cc(F)ccc1Sc1ccc2c(/C=C/c3cccc(CCN4CCCC4)n3)n[nH]c2c1` [Compound I-136], the IC50 on EGFR was more than 60 µM.

In turn, `CN1CCC(CCOc2ccc(/C=C/c3n[nH]c4cc(Sc5ccccc5C(=O)NC5CC5)ccc34)nc2)CC1` [Compound I-42] came in with a fraction unbound at 2 h, 2 µM in the series on melanin of 0.01 to 0.05. Also, the IC50 on EGFR is more than 60 µM.

In the case of `O=C(NC1CC1)c1ccccc1Sc1ccc2c(C#Cc3ccc(OCCN4CCCC4)cn3)n[nH]c2c1` [Compound I-139], on EGFR, the IC50 was more than 60 µM.

For the compound `CCN(CC)Cc1ccc(/C=C/c2n[nH]c3cc(Sc4c(F)cccc4C(=O)NC)ccc23)nc1` [Compound I-91], in the series with melanin, the fraction unbound at 2 h, 2 µM lay within 0.01 to 0.05. Moreover, the concentration in solution in series [1] (solubility at 8 h) came to 1650 µg/mL (≈ 3370 µM).

In the series with melanin, `CNC(=O)c1cc(F)ccc1Sc1ccc2c(/C=C/c3cnn(CCCN4CCCC4)c3)n[nH]c2c1` [Compound I-106] returned a fraction unbound at 2 h, 2 µM of more than 0.05. Moreover, the IC50 on EGFR lay within 6 to 60 µM.

Consider `CNC(=O)c1ccc(F)cc1Sc1ccc2c(/C=C/c3ccc(CN4CCCC4)cn3)n[nH]c2c1` [Compound I-94], for which, in the series on melanin, the fraction unbound at 2 h, 2 µM lay within 0.01 to 0.05. This compound also came in with a solubility at 8 h in series [1] of 31.8 µg/mL (≈ 65.2 µM).

For the compound `O=C(NC1CC1)c1ccccc1Sc1ccc2c(/C=C/c3cccc(CN4CCCC4)n3)n[nH]c2c1` [Compound I-117], the fraction unbound at 2 h, 2 µM with melanin fell in the range of 0.01 to 0.05. In addition, the IC50 at EGFR is more than 60 µM.

As to `CCN(CC)Cc1ccc(/C=C/c2n[nH]c3cc(Sc4ccccc4C(=O)NCCF)ccc23)nc1` [Compound I-98, 2-({3-[(E)-2-{5-[(diethylamino)methyl]pyridin-2-yl}ethenyl]-1H-indazol-6-yl}sulfanyl)-N-(2-fluoroethyl)benzamide], in the series on melanin, the fraction unbound at 2 h, 2 µM is more than 0.05. The amount in solution in series [1] (solubility at 8 h) came to 456 µg/mL (≈ 905 µM).

As to `CCNC(=O)c1cccc(F)c1Sc1ccc2c(/C=C/c3cccc(CCN4CCCC4)n3)n[nH]c2c1` [Compound I-129], the IC50 at EGFR is more than 60 µM.

Regarding `O=C(NC1CC1)c1cc(F)ccc1Sc1ccc2c(/C=C/c3ccc(CN4CCCC4)cn3)n[nH]c2c1` [Compound I-80], the fraction unbound at 2 h, 2 µM in the series on melanin lay in the range of 0.01 to 0.05. Moreover, the solubility at 8 h in series [1] was 199 µg/mL (≈ 387 µM).

In the series with melanin, `CNC(=O)c1ccccc1Sc1ccc2c(/C=C/c3cccc(OCCN4CCCC4)n3)n[nH]c2c1` [Compound I-17] registered a fraction unbound at 2 h, 2 µM of 0.01 to 0.05. This compound showed a solubility at 8 h in series [1] of 278 µg/mL (≈ 556 µM).

The compound `O=C(NC1CC1)c1cc(F)ccc1Sc1ccc2c(/C=C/c3cc(OCCN4CCCC4)ccn3)n[nH]c2c1` [Compound I-118] yielded a fraction unbound at 2 h, 2 µM in the series on melanin not above 0.01. Besides, on EGFR, the IC50 was more than 60 µM.

As to `CCN(CC)Cc1ccc(/C=C/c2n[nH]c3cc(Sc4ccccc4C(=O)NCC(F)(F)F)ccc23)nc1` [Compound I-100], the fraction unbound at 2 h, 2 µM in the series with melanin is more than 0.05. Besides, the solubility at 8 h in series [1] is 209 µg/mL (≈ 387 µM).

With `O=C(NC1CC1)c1ccccc1Sc1ccc2c(/C=C/c3cc(CCN4CCCC4)ccn3)n[nH]c2c1` [Compound I-133, N-cyclopropyl-2-((3-((E)-2-(4-(2-(pyrrolidin-1-yl)ethyl)pyridin-2-yl)ethenyl)-1H-indazol-6-yl)thio)benzamide], on EGFR, the IC50 was more than 60 µM.

On to `CNC(=O)c1cc(F)ccc1Sc1ccc2c(/C=C/c3ccc(OCCN4CCCC4)cn3)n[nH]c2c1` [Compound I-34, 5-fluoro-N-methyl-2-({3-[(E)-2-{5-[2-(pyrrolidin-1-yl)ethoxy]pyridin-2-yl}ethenyl]-1H-indazol-6-yl}sulfanyl)benzamide], for which, in the series on melanin, the fraction unbound at 2 h, 2 µM was more than 0.05. For the same compound, the solubility at 8 h in series [1] was determined as 19.3 µg/mL (≈ 37.3 µM).

In the series on melanin, `CNC(=O)c1ccccc1Sc1cnc2c(/C=C/c3ccccn3)n[nH]c2c1` [Compound I-21, N-methyl-2-({3-[(E)-2-(pyridin-2-yl)ethenyl]-1H-pyrazolo[4,3-b]pyridin-6-yl}sulfanyl)benzamide] gave a fraction unbound at 2 h, 2 µM of 0.01 to 0.05. For the same compound, in series [1], the solubility at 8 h came to 0.9 µg/mL (≈ 2.32 µM).

`CNC(=O)c1cccc(F)c1Sc1ccc2c(/C=C/c3ccc(OCCN4CCCC4)cn3)n[nH]c2c1` [Compound I-33, 3-fluoro-N-methyl-2-({3-[(E)-2-{5-[2-(pyrrolidin-1-yl)ethoxy]pyridin-2-yl}ethenyl]-1H-indazol-6-yl}sulfanyl)benzamide]: in the series on melanin, the fraction unbound at 2 h, 2 µM is more than 0.05. Also, the concentration in solution in series [1] (solubility at 8 h) came to 57.7 µg/mL (≈ 111 µM).

In turn, `CCNC(=O)c1cccc(F)c1Sc1ccc2c(/C=C/c3cc(CCCN4CCCC4)ccn3)n[nH]c2c1` [Compound I-116, N-ethyl-3-fluoro-2-({3-[(E)-2-{4-[3-(pyrrolidin-1-yl)propyl]pyridin-2-yl}ethenyl]-1H-indazol-6-yl}sulfanyl)benzamide] yielded a fraction unbound at 2 h, 2 µM with melanin of 0.01 to 0.05. The IC50 on EGFR was more than 60 µM.

`CNC(=O)c1ccccc1Sc1ccc2c(/C=C/c3ccc(OCCN4CCCC4)nc3)n[nH]c2c1` [Compound I-19, N-methyl-2-((3-((E)-2-(6-(2-(pyrrolidin-1-yl)ethoxy)pyridin-3-yl)ethenyl)-1H-indazol-6-yl)thio)benzamide]: the fraction unbound at 2 h, 2 µM in the series with melanin was in the range of 0.01 to 0.05. For the same compound, on EGFR, the IC50 is more than 60 µM.

Take `O=C(NC1CC1)c1cc(F)ccc1Sc1ccc2c(/C=C/c3cc(CN4CCCC4)ccn3)n[nH]c2c1` [Compound I-137]: on EGFR, the IC50 is more than 60 µM.

With `CNC(=O)c1ccccc1Sc1ccc2c(/C=C/c3cnn(CCN4CCCC4)c3)n[nH]c2c1` [Compound I-9], the fraction unbound at 2 h, 2 µM with melanin lay in the range of 0.01 to 0.05. In series [1], this compound came in with a solubility at 8 h of 363 µg/mL (≈ 768 µM).

Turning to `CCN(CC)Cc1ccc(/C=C/c2n[nH]c3cc(Sc4ccccc4C(=O)NCC(F)F)ccc23)nc1` [Compound I-99], the fraction unbound at 2 h, 2 µM with melanin is more than 0.05. The solubility at 8 h in series [1] was determined as 341 µg/mL (≈ 654 µM).
